Data as given in ChEMBL document CHEMBL5352429, “Designed symmetrical β-hairpin peptides for treating multidrug-resistant salmonella typhimurium infections” (Eur J Med Chem, 2022).
Converted amounts (≈) assume the structure as drawn. The source made the active and inactive calls. The calls are words filed in the database; no cut-off is given here. Peptide text beside a SMILES is read from it.

Legend:
[1] = system: Staphylococcus aureus; assay: Antibacterial activity against Staphylococcus aureus ATCC 29213 incubated overnight by standard microtiter dilution method; assay type: functional
[2] = system: Staphylococcus aureus; assay: Antibacterial activity against methicillin-resistant Staphylococcus aureus ATCC 43300 incubated overnight by standard microtiter dilution method; assay type: functional
[3] = system: Staphylococcus epidermidis; assay: Antibacterial activity against methicillin-resistant Staphylococcus epidermidis ATCC 12228 incubated overnight by standard microtiter dilution method; assay type: functional
[4] = system: Enterococcus faecalis; assay: Antibacterial activity against Enterococcus faecalis ATCC 29212 incubated overnight by standard microtiter dilution method; assay type: functional
[5] = system: Escherichia coli; assay: Antibacterial activity against Escherichia coli O157:H7 CICC 21530 incubated overnight by standard microtiter dilution method; assay type: functional
[6] = system: Salmonella paratyphi; assay: Antibacterial activity against Salmonella paratyphi A CICC 21501 incubated overnight by standard microtiter dilution method; assay type: functional, Salmonella enterica subsp. enterica serovar Paratyphi A; conditions: Salmonella enterica
[7] = system: Salmonella enterica subsp. enterica serovar Paratyphi B; assay: Antibacterial activity against Salmonella paratyphi B CICC 21495 incubated overnight by standard microtiter dilution method; assay type: functional
[8] = Antibacterial activity against Salmonella paratyphi C CICC 21512 incubated overnight by standard microtiter dilution method; assay type: functional, Salmonella enterica subsp. enterica serovar Paratyphi C; conditions: Salmonella enterica
[9] = Antibacterial activity against Salmonella enterica subsp. enterica serovar Choleraesuis ATCC 13312 incubated overnight by standard microtiter dilution method; assay type: functional
[10] = Antibacterial activity against Salmonella enterica subsp. enterica serovar Choleraesuis CICC 21493 incubated overnight by standard microtiter dilution method; assay type: functional
[11] = system: Salmonella enteritidis; assay: Antibacterial activity against Salmonella enteritidis CICC 21527 incubated overnight by standard microtiter dilution method; assay type: functional, Salmonella enterica subsp. enterica serovar Enteritidis; conditions: Salmonella enterica
[12] = Antibacterial activity against Salmonella wandsworth CICC 21504 incubated overnight by standard microtiter dilution method; assay type: functional, Salmonella enterica subsp. enterica serovar Wandsworth; conditions: Salmonella enterica
[13] = system: Salmonella typhimurium; assay: Antibacterial activity against Salmonella typhimurium CICC 21483 incubated overnight by standard microtiter dilution method; assay type: functional, Salmonella enterica subsp. enterica serovar Typhimurium; conditions: Salmonella enterica
[14] = system: Salmonella typhimurium; assay: Antibacterial activity against Salmonella typhimurium CICC 21913 incubated overnight by standard microtiter dilution method; assay type: functional, Salmonella enterica subsp. enterica serovar Typhimurium; conditions: Salmonella enterica
[15] = Antibacterial activity against Salmonella blockley CICC 21489 incubated overnight by standard microtiter dilution method; assay type: functional, Salmonella enterica subsp. enterica serovar Blockley; conditions: Salmonella enterica
[16] = Antibacterial activity against Salmonella dublin CICC 21497 incubated overnight by standard microtiter dilution method; assay type: functional, Salmonella enterica subsp. enterica serovar Dublin; conditions: Salmonella enterica
[17] = system: Salmonella typhimurium; assay: Antibacterial activity against Salmonella typhimurium DT104 ATCC 700408 incubated overnight by standard microtiter dilution method; assay type: functional, Salmonella enterica subsp. enterica serovar Typhimurium; conditions: Salmonella enterica
[18] = system: Candida albicans; assay: Antifungal activity against Candida albicans ATCC 10231 incubated overnight by standard microtiter dilution method; assay type: functional
[19] = system: Erythrocyte; assay: Hemolytic activity in human Red blood cells assessed as hemolysis incubated for 1 hrs by absorbance based microplate reader analysis; assay type: toxicity, cell-based
[20] = system: Salmonella typhimurium; assay: Antibacterial activity against Salmonella typhimurium DT104 in the presence of NaCl by MH broth based assay; assay type: functional, Salmonella enterica subsp. enterica serovar Typhimurium; conditions: Salmonella enterica
[21] = system: Salmonella typhimurium; assay: Antibacterial activity against Salmonella typhimurium DT104 in the presence of KCl by MH broth based assay; assay type: functional, Salmonella enterica subsp. enterica serovar Typhimurium; conditions: Salmonella enterica
[22] = system: Salmonella typhimurium; assay: Antibacterial activity against Salmonella typhimurium DT104 in the presence of NH4Cl by MH broth based assay; assay type: functional, Salmonella enterica subsp. enterica serovar Typhimurium; conditions: Salmonella enterica
[23] = system: Salmonella typhimurium; assay: Antibacterial activity against Salmonella typhimurium DT104 in the presence of CaCl2 by MH broth based assay; assay type: functional, Salmonella enterica subsp. enterica serovar Typhimurium; conditions: Salmonella enterica
[24] = system: Salmonella typhimurium; assay: Antibacterial activity against Salmonella typhimurium DT104 in the presence of MgCl2 by MH broth based assay; assay type: functional, Salmonella enterica subsp. enterica serovar Typhimurium; conditions: Salmonella enterica
[25] = system: Salmonella typhimurium; assay: Antibacterial activity against Salmonella typhimurium DT104 in the presence of FeCl3 by MH broth based assay; assay type: functional, Salmonella enterica subsp. enterica serovar Typhimurium; conditions: Salmonella enterica
[26] = system: Salmonella typhimurium; assay: Antibacterial activity against Salmonella typhimurium DT104 in the presence 25% inactivated mouse serum by MH broth based assay; assay type: functional, Salmonella enterica subsp. enterica serovar Typhimurium; conditions: Salmonella enterica
[27] = system: Salmonella typhimurium; assay: Antibacterial activity against Salmonella typhimurium DT104 in the presence 50% inactivated mouse serum by MH broth based assay; assay type: functional, Salmonella enterica subsp. enterica serovar Typhimurium; conditions: Salmonella enterica
[28] = Hemolytic activity in human Red blood cells assessed as hemolysis at 128 ug/ml incubated for 1 hrs by absorbance based microplate reader analysis relative to control; assay type: toxicity, cell-based, Erythrocyte; conditions: red blood cells (erythrocytes), at 128 µg/mL, read-out: Activity
[29] = Cytotoxicity against mouse RAW264.7 cells assessed as cell viability at 128 ug/ml incubated for 24 hrs by MTT assay; assay type: toxicity, cell-based; conditions: at 128 µg/mL, read-out: Activity
[30] = system: Salmonella typhimurium; assay: Antibacterial activity against multi-drug resistant Salmonella typhimurium DT104 assessed as inhibition of bacterial growth at 0.5 to 2 times of MIC by MH agar based serial dilution method; assay type: functional, organism-based; conditions: Salmonella enterica subsp. enterica serovar Typhimurium, time <= 120.0 min, TDE = time-dependent effect
[31] = system: Salmonella typhimurium; assay: Antibacterial activity against multi-drug resistant Salmonella typhimurium DT104 assessed as inhibition of bacterial growth measured upto 120 mins by MH agar based serial dilution method; assay type: functional, organism-based; conditions: Salmonella enterica subsp. enterica serovar Typhimurium
[32] = system: Lipopolysaccharide (LPS); assay: Displacement of BODIPY-TR-cadaverine from Salmonella typhimurium LPS assessed as increase in fluorescence intensity by fluorescence spectrophotometric analysis; conditions: Salmonella enterica subsp. enterica serovar Typhimurium; dose 0.25-8 µg/ml
[33] = system: RAW264.7; assay: Inhibition of LPS-stimulated NO production in mouse RAW264.7 cells incubated for 24 hrs by Griess reagent based analysis; assay type: functional, cell-based; conditions: dose 1-128 µg/ml
[34] = system: RAW264.7; assay: Inhibition of LPS-stimulated TNF-alpha production in mouse RAW264.7 cells at 1 to 128 ug/ml incubated for 24 hrs by ELISA analysis; assay type: functional, cell-based; conditions: dose 1-128 µg/ml
[35] = system: RAW264.7; assay: Inhibition of LPS-stimulated IL-1beta production in mouse RAW264.7 cells at 1 to 128 ug/ml incubated for 24 hrs by ELISA analysis; assay type: functional, cell-based; conditions: dose 1-128 µg/ml
[36] = system: RAW264.7; assay: Inhibition of LPS-stimulated IL-8 production in mouse RAW264.7 cells at 1 to 128 ug/ml incubated for 24 hrs by ELISA analysis; assay type: functional, cell-based; conditions: dose 1-128 µg/ml
[37] = system: Cell membrane; assay: Disruption of membrane integrity in Salmonella typhimurium DT104 assessed as increase in fluorescence intensity at 0.5 to 2 times of MIC incubated for 15 mins by PI staining based flow cytometric analysis; assay type: subcellular; conditions: Salmonella enterica subsp. enterica serovar Typhimurium

Compound | MIC [1] [µg/mL] | MIC [2] [µg/mL] | MIC [3] [µg/mL] | MIC [4] [µg/mL] | MIC [5] [µg/mL] | MIC [6] [µg/mL] | MIC [7] [µg/mL] | MIC [8] [µg/mL] | MIC [9] [µg/mL] | MIC [10] [µg/mL] | MIC [11] [µg/mL] | MIC [12] [µg/mL] | MIC [13] [µg/mL] | MIC [14] [µg/mL] | MIC [15] [µg/mL] | MIC [16] [µg/mL] | MIC [17] [µg/mL] | MIC [18] [µg/mL] | MHC [19] [µg/mL] | MIC [20] [µg/mL] | further results
CC(C)C[C@H](NC(=O)[C@H](CCCCN)NC(=O)[C@H](CC(C)C)NC(=O)[C@H](CCCCN)NC(=O)[C@H](CC(C)C)NC(=O)[C@H](CCCCN)NC(=O)[C@H](CS)NC(=O)CNC(=O)[C@H](CO)NC(=O)[C@H](CCCCN)NC(=O)[C@@H](NC(=O)[C@H](CS)NC(=O)[C@H](CCCCN)NC(=O)[C@H](CC(C)C)NC(=O)[C@H](CCCCN)NC(=O)[C@H](CC(C)C)NC(=O)[C@H](CCCCN)NC(=O)[C@@H](N)CC(C)C)[C@@H](C)O)C(N)=O (H-LKLKLKCTKSGCKLKLKL-NH2) | > 128 | > 128 | 32 (≈ 15.6 µM) | 64 (≈ 31.3 µM) | 8 (≈ 3.91 µM) | > 128 | 4 (≈ 1.96 µM) | 4 (≈ 1.96 µM) | 4 (≈ 1.96 µM) | 128 (≈ 62.6 µM) | 64 (≈ 31.3 µM) | 128 (≈ 62.6 µM) | 128 (≈ 62.6 µM) | > 128 | 128 (≈ 62.6 µM) | 32 (≈ 15.6 µM) | 64 (≈ 31.3 µM) | 128 (≈ 62.6 µM) | 64 | > 128 | MIC [21]: > 128 µg/mL; MIC [22]: > 128 µg/mL; MIC [23]: > 128 µg/mL; MIC [24]: > 128 µg/mL; MIC [25]: > 128 µg/mL; MIC [26]: > 128 µg/mL; MIC [27]: > 128 µg/mL; hemolysis at 1 h, 128 ug/ml [28]: 16.4%; viability at 24 h, 128 ug/ml [29]: 14.2%; Activity [30]: Tde; Activity [31]: Dose-Dependent Effect; Activity [32]: Dose-Dependent Effect; inhibition [33]: Dose-Dependent Effect; inhibition [34]: Active; inhibition [35]: Active; inhibition [36]: Active; Activity [37]: Active
CC(C)[C@H](N)C(=O)N[C@@H](CCCCN)C(=O)N[C@H](C(=O)N[C@@H](CCCCN)C(=O)N[C@H](C(=O)N[C@@H](CCCCN)C(=O)N[C@@H](CS)C(=O)N[C@H](C(=O)N[C@@H](CCCCN)C(=O)N[C@@H](CO)C(=O)NCC(=O)N[C@@H](CS)C(=O)N[C@@H](CCCCN)C(=O)N[C@H](C(=O)N[C@@H](CCCCN)C(=O)N[C@H](C(=O)N[C@@H](CCCCN)C(=O)N[C@H](C(N)=O)C(C)C)C(C)C)C(C)C)[C@@H](C)O)C(C)C)C(C)C (H-VKVKVKCTKSGCKVKVKV-NH2) | > 128 | > 128 | 4 (≈ 2.04 µM) | 4 (≈ 2.04 µM) | 2 (≈ 1.02 µM) | 2 (≈ 1.02 µM) | 1 (≈ 0.51 µM) | 2 (≈ 1.02 µM) | 0.5 (≈ 0.255 µM) | 32 (≈ 16.3 µM) | 32 (≈ 16.3 µM) | 4 (≈ 2.04 µM) | 64 (≈ 32.6 µM) | > 128 | 16 (≈ 8.16 µM) | 4 (≈ 2.04 µM) | 32 (≈ 16.3 µM) | 8 (≈ 4.08 µM) | > 128 | > 128 | MIC [21]: 128 µg/mL; MIC [22]: 64 µg/mL; MIC [23]: > 128 µg/mL; MIC [24]: > 128 µg/mL; MIC [25]: 64 µg/mL; MIC [26]: > 128 µg/mL; MIC [27]: > 128 µg/mL; hemolysis at 1 h, 128 ug/ml [28]: < 10%; viability at 24 h, 128 ug/ml [29]: 39.8%; Activity [32]: Dose-Dependent Effect; inhibition [33]: Dose-Dependent Effect; inhibition [34]: Active; inhibition [35]: Active; inhibition [36]: Active; Activity [37]: Active
